# Patent US20140039044A1, “Hydroxylated Polymethoxyflavone Compositions” (WLLGEN, INC., priority 2006, published 2014)
# Like-named read-outs stand apart in the source and are kept apart here.
# Tests used:
# Format in all cases: cell-based, human
# HL-60 cells = assay: Cell survival assay (antiproliferative IC50); details: HL-60 cells, read-out: Antiproliferative IC50
# AGS cells = assay: Cell cycle distribution by flow cytometry; details: for Cell Cycle Distribution G0/G1 / Cell Cycle Distribution G2/M / Cell Cycle Distribution S: 24 h, Table 11
# Description: (§1) The human cancer cells (2×10^5) were cultured in 60-mm Petri dishes and incubated for 24 h. After treated with test compounds for 24 h, the cells were then harvested, washed with PBS resuspended in 200 μL of PBS, and fixed in 800 μL of iced 100% ethanol at −20° C. After being left to stand overnight, the cell pellets were collected by centrifugation, resuspended in 1 mL of hypotonic buffer (0.5% Triton X-100 in PBS and 0.5 μg/mL RNase) and incubated at 37° C. for 30 min. Next, 1 mL of propidium iodide solution (50 μg/mL) was added, and the mixture was allowed to stand on ice for 30 min. Fluorescence emitted from the propidium iodide-DNA complex was quantitated after excitation of the fluorescent dye by FACScan cytometry (Becton Dickinson, San Jose, Calif.).
# (§2) The effects of the hydrolyzed PMF-enriched compositions, nobiletin and 70% PMF OPE on cell cycle distribution were studied, following the procedures described in Section 8.4. Results for cell cycle distribution in HL-60 cells, COLO205 cells and AGS cells are provided in Table 5, Table 6 and Table 7, respectively. […] In HL-60 cells, G2/M arrest predominated in cells treated with 6N PMF concentrations ≧5 μM and with 1N PMF concentrations ≧25 μM.
# (§3) Compounds A-K were evaluated in terms of their effects in arresting cell cycle progression by observing cell cycle phase distribution in cells treated with the compounds. Cells were treated with 5, 10, 25, 50, and 100 μM of one of compound A-K or DMSO (control) for 24 h and subjected to flow cytometric analysis after staining their DNA, as described above.
# (§4) Similar cell cycle phase distribution studies were performed in AGS, COLO205, and HT-29 cells in response to individual PMFs, with results reported in Tables 11, 12 and 13, respectively.
# COLO205 cells = assay: Cell cycle distribution by flow cytometry; details: COLO205 cells; for Cell Cycle Distribution G0/G1 / Cell Cycle Distribution G2/M / Cell Cycle Distribution S: 24 h, Table 12
# Description: as §1, §2, §3, §4
Structure (SMILES),Cell Cycle Distribution G0/G1 (AGS cells; 5 μM),Cell Cycle Distribution G2/M (AGS cells; 5 μM),Cell Cycle Distribution S (AGS cells; 5 μM),Cell Cycle Distribution G0/G1 (AGS cells; 10 μM),Cell Cycle Distribution G2/M (AGS cells; 10 μM),Cell Cycle Distribution S (AGS cells; 10 μM),Cell Cycle Distribution G0/G1 (AGS cells; 25 μM),Cell Cycle Distribution G2/M (AGS cells; 25 μM),Cell Cycle Distribution S (AGS cells; 25 μM),Cell Cycle Distribution G0/G1 (AGS cells; 50 μM),Cell Cycle Distribution G2/M (AGS cells; 50 μM),Cell Cycle Distribution S (AGS cells; 50 μM),Cell Cycle Distribution G0/G1 (AGS cells; 100 μM),Cell Cycle Distribution G2/M (AGS cells; 100 μM),Cell Cycle Distribution S (AGS cells; 100 μM),Cell Cycle Distribution G0/G1 (COLO205 cells; 5 μM),Cell Cycle Distribution G2/M (COLO205 cells; 5 μM),Cell Cycle Distribution S (COLO205 cells; 5 μM),Cell Cycle Distribution G0/G1 (COLO205 cells; 10 μM),Cell Cycle Distribution G2/M (COLO205 cells; 10 μM),other results
"COc1ccc(-c2cc(=O)c3c(O)c(OC)c(OC)c(OC)c3o2)cc1O [Compound K, 5,3′-dihydroxy-6,7,8,4′-tetramethoxyflavone]",51.75 ± 0.73,13.65 ± 0.18,34.61 ± 0.91,22.20 ± 1.56,48.12 ± 1.35,26.69 ± 0.91,42.63 ± 0.05,34.57 ± 0.62,22.81 ± 0.51,43.90 ± 2.37,35.67 ± 2.29,20.44 ± 0.08,50.77 ± 1.01,31.20 ± 0.43,18.04 ± 1.45,57.68 ± 0.42,7.08 ± 0.20,34.52 ± 0.21,65.81 ± 0.83,1.75 ± 0.47,"IC50 (HL-60 cells; Homo sapiens): 10 µM; G2/M cell cycle arrest, in words (AGS cells): strongly potentiated the G2/M cell cycle arrest; G2/M cell cycle arrest, in words (COLO205 cells): strongly potentiated the G2/M cell cycle arrest; Cell Cycle Distribution S (COLO205 cells; 10 μM): 32.44 ± 2.28; Cell Cycle Distribution G0/G1 (COLO205 cells; 25 μM): 66.63 ± 1.51; Cell Cycle Distribution G2/M (COLO205 cells; 25 μM): 13.31 ± 1.91; Cell Cycle Distribution S (COLO205 cells; 25 μM): 20.06 ± 0.40; Cell Cycle Distribution G0/G1 (COLO205 cells; 50 μM): 42.30 ± 1.12; Cell Cycle Distribution G2/M (COLO205 cells; 50 μM): 23.42 ± 0.83; Cell Cycle Distribution S (COLO205 cells; 50 μM): 34.29 ± 0.29; Cell Cycle Distribution G0/G1 (COLO205 cells; 100 μM): 43.58 ± 2.29; Cell Cycle Distribution G2/M (COLO205 cells; 100 μM): 22.85 ± 2.96; Cell Cycle Distribution S (COLO205 cells; 100 μM): 33.57 ± 0.67"
"COc1ccc(-c2oc3c(OC)c(OC)c(OC)c(OC)c3c(=O)c2OC)cc1OC [D, 3,5,6,7,8,3,4-heptamethoxyflavone, reference compound]",37.6 ± 0.92,0.4 ± 0.57,62.4 ± 0.85,44.2 ± 0.14,1.3 ± 0.42,55.2 ± 0.42,46.6 ± 0.35,4.7 ± 0.14,48.8 ± 0.42,48.0 ± 0.14,6.9 ± 0.42,45.7 ± 0.35,63.2 ± 0.78,4.0 ± 0.14,33.0 ± 0.49,60.81 ± 0.62,0.04 ± 0.05,39.16 ± 0.67,60.58 ± 0.57,0.40 ± 0.04,IC50 (HL-60 cells): 54.4 ± 0.9 µM; Cell Cycle Distribution S (COLO205 cells; 10 μM): 39.02 ± 0.61; Cell Cycle Distribution G0/G1 (COLO205 cells; 25 μM): 61.91 ± 0.35; Cell Cycle Distribution G2/M (COLO205 cells; 25 μM): 9.28 ± 0.59; Cell Cycle Distribution S (COLO205 cells; 25 μM): 28.82 ± 0.23; Cell Cycle Distribution G0/G1 (COLO205 cells; 50 μM): 68.87 ± 1.53; Cell Cycle Distribution G2/M (COLO205 cells; 50 μM): 6.10 ± 2.64; Cell Cycle Distribution S (COLO205 cells; 50 μM): 25.03 ± 1.12; Cell Cycle Distribution G0/G1 (COLO205 cells; 100 μM): 75.17 ± 0.05; Cell Cycle Distribution G2/M (COLO205 cells; 100 μM): 5.72 ± 0.64; Cell Cycle Distribution S (COLO205 cells; 100 μM): 19.12 ± 0.69
